Experimental findings from the Kinase Knowledgebase extract (Sharma et al. 2016) are described below.

The target in this assay is PIK3CA (human) (UniProt P42336). The assay is described as follows: Inhibition of PIK3CA Kinase Activity.
Sequence of PIK3CA (human) (P42336 whole entry, looked up): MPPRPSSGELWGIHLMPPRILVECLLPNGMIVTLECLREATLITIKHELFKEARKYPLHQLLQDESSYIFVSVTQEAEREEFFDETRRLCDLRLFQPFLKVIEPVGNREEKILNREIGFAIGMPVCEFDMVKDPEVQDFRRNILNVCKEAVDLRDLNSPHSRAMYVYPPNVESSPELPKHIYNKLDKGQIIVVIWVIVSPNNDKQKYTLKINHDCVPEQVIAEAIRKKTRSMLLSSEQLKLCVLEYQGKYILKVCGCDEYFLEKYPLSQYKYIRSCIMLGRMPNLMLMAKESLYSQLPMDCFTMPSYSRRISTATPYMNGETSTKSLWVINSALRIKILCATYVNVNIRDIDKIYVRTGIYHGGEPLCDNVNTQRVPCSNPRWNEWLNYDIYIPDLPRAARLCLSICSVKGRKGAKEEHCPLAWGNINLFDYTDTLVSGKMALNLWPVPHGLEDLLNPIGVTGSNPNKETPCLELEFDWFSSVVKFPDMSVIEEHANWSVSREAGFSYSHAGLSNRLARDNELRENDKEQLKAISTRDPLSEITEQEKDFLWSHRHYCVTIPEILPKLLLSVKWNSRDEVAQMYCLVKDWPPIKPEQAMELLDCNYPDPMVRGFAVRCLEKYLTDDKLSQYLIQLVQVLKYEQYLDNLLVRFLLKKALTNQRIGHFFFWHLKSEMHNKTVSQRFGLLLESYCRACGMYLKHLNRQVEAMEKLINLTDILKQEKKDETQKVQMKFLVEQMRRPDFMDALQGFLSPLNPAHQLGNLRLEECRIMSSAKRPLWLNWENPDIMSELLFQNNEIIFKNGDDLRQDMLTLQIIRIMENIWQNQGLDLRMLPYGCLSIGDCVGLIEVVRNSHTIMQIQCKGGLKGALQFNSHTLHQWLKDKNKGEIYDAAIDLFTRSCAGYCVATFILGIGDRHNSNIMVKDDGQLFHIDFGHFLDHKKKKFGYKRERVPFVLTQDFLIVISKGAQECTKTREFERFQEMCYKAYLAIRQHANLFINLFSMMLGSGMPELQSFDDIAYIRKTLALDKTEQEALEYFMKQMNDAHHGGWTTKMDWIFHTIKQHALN
In turn, `c1ccc(CN2CCC(n3ncc4c(N5CCOCC5)nc(-c5ccc6ccccc6c5)nc43)CC2)cc1` registered an IC50 of 8.2 µM.

In turn, `Clc1ccccc1CN1CCC(n2ncc3c(N4CCOCC4)nc(-c4ccc5[nH]ccc5c4)nc32)CC1` showed a concentration for half-maximal inhibition (IC50) of 1.7 µM.

`Nc1ccc(-c2nc(N3CCOCC3)c3cn[nH]c3n2)cc1` had an IC50 of 1.61 µM.

In turn, `c1cc2cc(-c3nc(N4CCOCC4)c4cnn([C@@H]5CCCNC5)c4n3)ccc2[nH]1` had a half-inhibitory concentration (IC50) of 10 µM.

Regarding `c1ccc(CN2CCC(n3ncc4c(N5CCOCC5)nc(-c5cccc6ccccc56)nc43)CC2)cc1`, the concentration for half-maximal inhibition (IC50) was 10 µM.

`CNC(=O)Nc1ccc(-c2nc(N3CCOCC3)c3cnn(C4CCN(COC)CC4)c3n2)cc1` registered a half-maximal inhibitory concentration (IC50) of 1.56 µM.

Take `CCOC(=O)Nc1ccc(-c2nc(N3CCOCC3)c3cnn(C4CCN(C(=O)OCC)CC4)c3n2)cc1`: the IC50 came out at 6.72 µM.

In the case of `CNC(=O)Nc1ccc(-c2nc(N3CCOCC3)c3cnn(C4=CCS(=O)(=O)CC4)c3n2)cc1`, the IC50 stood at 0.074 µM. Against the preceding molecule, the IC50 is about 91-fold lower.

With `CN(C)c1cccc(-c2nc(N3CCOCC3)c3cnn(C4CCN(Cc5ccccc5)CC4)c3n2)c1`, the IC50 was 9.13 µM.

Molecule `CNC(=O)Nc1ccc(-c2nc(N3CCOCC3)c3cnn(C4=CC[S+]([O-])CC4)c3n2)cc1` (centres undefined) registered an IC50 of 0.08 µM.

In turn, `c1ccc(CN2CCC(n3ncc4c(N5CCOCC5)nc(-c5ccc(-c6ccccc6)cc5)nc43)CC2)cc1` showed an IC50 of 8.57 µM.

As to `O=C(O)c1cccc(-c2nc(N3CCOCC3)c3cnn(C4CCN(Cc5ccccc5)CC4)c3n2)c1`, the half-maximal inhibitory concentration (IC50) worked out at 10 µM.

Turning to `O=C(c1cccc(C(F)(F)F)c1)N1CCC(n2ncc3c(N4CCOCC4)nc(-c4ccc5[nH]ccc5c4)nc32)CC1`, the IC50 stood at 1.43 µM.

As for `CNC(=O)Nc1ccc(-c2nc(N3CCOCC3)c3cnn(C4CCN(C(N)=O)CC4)c3n2)cc1`, the IC50 was determined as 0.066 µM.

The molecule `CC(C)(C)OC(=O)N1CCC(n2ncc3c(N4CCOCC4)nc(-c4ccc(NC(=O)Nc5cccnc5)cc4)nc32)CC1` had an IC50 of 0.032 µM.

Regarding `O=C(c1ccc(F)cc1)N1CCC(n2ncc3c(N4CCOCC4)nc(-c4ccc5[nH]ccc5c4)nc32)CC1`, the half-maximal inhibitory concentration (IC50) was found to be 1.75 µM.

`c1ccc(-n2ncc3c(N4CCOCC4)nc(-c4cncnc4)nc32)cc1` gave an IC50 of 0.44 µM. This IC50 is about 4-fold lower than that of the molecule before.

With `CN(C)C(=O)c1ccc(-c2nc(N3CCOCC3)c3cnn(C4CCN(Cc5ccccc5)CC4)c3n2)cc1`, the IC50 came out at 10 µM.

The molecule `c1cc2cc(-c3nc(N4CCOCC4)c4cnn([C@H]5CCCNC5)c4n3)ccc2[nH]1` showed an IC50 of 10 µM.

Take `c1ccc(CN2CCC(n3ncc4c(N5CCOCC5)nc(-c5cccc6c5sc5ccccc56)nc43)CC2)cc1`: the half-maximal inhibitory concentration (IC50) was 8.77 µM.

`CN(C)C(=O)C=CCN1CCC(n2ncc3c(N4CCOCC4)nc(-c4ccc5[nH]ccc5c4)nc32)CC1` gave a 50% inhibitory concentration (IC50) of 0.48 µM.

`CC(=O)Nc1ccc(-c2nc(N3CCOCC3)c3cnn(C4CCCCO4)c3n2)cc1` (centres undefined) showed a 50% inhibitory concentration (IC50) of 1.65 µM.

As for `NC(=O)Nc1ccc(-c2nc(N3CCOCC3)c3cnn(C4CCN(C(=O)c5ccccc5)CC4)c3n2)cc1`, the IC80 amounted to 0.084 µM.

In turn, `CNC(=O)Nc1ccc(-c2nc(N3CCOCC3)c3cn[nH]c3n2)cc1` registered an IC50 of 0.014 µM.

For the molecule `COC(=O)Nc1ccc(-c2nc(N3CCOCC3)c3cnn(C4CCN(C(=O)c5ccc(C#N)cc5)CC4)c3n2)cc1`, the IC50 is 0.999 µM.

In turn, `c1ccc(CN2CCC(n3ncc4c(N5CCOCC5)nc(-c5cccc(-c6ccccc6)c5)nc43)CC2)cc1` had a half-maximal inhibitory concentration (IC50) of 10 µM.

In turn, `COC(=O)Nc1ccc(-c2nc(N3CCOCC3)c3cnn(C4CCN(Cc5ccc(F)nc5)CC4)c3n2)cc1` returned a half-maximal inhibitory concentration (IC50) of 1.2 µM.

On to `NC(=O)Cc1cccc(-c2nc(N3CCOCC3)c3cnn(-c4ccccc4)c3n2)c1`, for which the concentration for half-maximal inhibition (IC50) turned out to be 0.357 µM.

Turning to `c1ccc(-n2ncc3c(N4CCOCC4)nc(-c4csc5ccccc45)nc32)cc1`, the half-maximal inhibitory concentration (IC50) was found to be 10 µM. This IC50 lies about 28-fold higher than the previous one.

For orientation: IC50 means the midpoint of a concentration-inhibition curve. A lower IC50 goes with higher potency. Usually IC80 stands for the point of the concentration-response curve where the effect stands at 80%.
